Measured values published in patent publication US20080234326A1, “Novel Salts of Pantoprazole and (S) - Pantoprazole” (Altana Pharma AG, priority 2004, published 2008).

Experiment: stability as a storage form
Format: physicochemical
Details: statement in words, no method or data given

For COc1ccnc(C[S+]([O-])c2nc3cc(OC(F)F)ccc3[n-]2)c1OC.[Na+] [sodium salt of (−)- or (S)-pantoprazole], the “formation of a stable storage form” value was “does not form a stable storage form”.
